{"source": "paper PMC10305119", "about": "“Analogs of 6-Bromohypaphorine with Increased Agonist Potency for α7 Nicotinic Receptor as Anti-Inflammatory Analgesic Agents” (Marine Drugs, 2023)", "key": {"[1]": {"test_system": "CD86 expression on macrophages", "assay": "Flow cytometry of CD86 protein on macrophages", "format": "cell-based, human", "details": "48 h incubation", "experimental": "The effect of the above-listed compounds on the expression of the TLR4 receptor and the CD86 protein was studied by flow cytometry after 48 h incubation with macrophages. The interaction of bacterial endotoxins with the TLR4 receptor is known to activate the expression of several pro-inflammatory cytokine genes, while the co-stimulatory molecule CD86 plays an important role in […] inflammatory responses. A decrease in the expression of the TLR4 receptor was observed under the action of all tested compounds (Figure 4c,e), the rank order of these TLR4-suppressing effects was as follows: hypaphorine (14%) < PNU 282,987 (21%) < 6ID (31%).\nPeripheral blood mononuclear cells (PBMCs) were separated by Ficoll-Paque PLUS density gradient centrifugation. PBMCs were placed in a sterile Petri dish and incubated at 37 °C for 2 h. Unattached cells were then removed by washing with PBS and substituted with fresh complete RPMI 1640 medium. To generate monocyte-derived macrophages (MDMs), 50 ng/mL GM-CSF was added to the isolated monocytes and cultured for 6 days to differentiate them into non-polarized MDMs.\nFigure 4 The effects of PNU 282987, hypaphorine, and D-6-iodohypaphorine methyl ester (6ID) on macrophage membrane proteins expression. Cells were treated with these compounds for 48 h and then analyzed by flow cytometry. PNU 282,987 led to an increase in the (a) CD11b and (b) CD11c expression. (c): All tested compounds led to a decrease in TLR4 expression. (d): Macrophages stimulation with hypaphorine and 6ID promoted an increase in CD86 expression. Results obtained in three independent experiments on macrophages from different donors and presented as mean ± SD. One-way ANOVA tests with Tukey post hoc test: * p ˂0.05, ** p ˂ 0.01, **** p < 0.0001 in comparison with untreated cells."}, "α9α10 nAChR": {"molecular_target": "T1, α9α10 nAChR (Homo sapiens, UniProt Q9GZZ6+Q9UGM1)", "T1 construct": "expressed in transfected cells; host or cells: Xenopus oocytes injected with in vitro transcribed RNA", "T1 sequence (Q9UGM1 26-479 limits assumed)": "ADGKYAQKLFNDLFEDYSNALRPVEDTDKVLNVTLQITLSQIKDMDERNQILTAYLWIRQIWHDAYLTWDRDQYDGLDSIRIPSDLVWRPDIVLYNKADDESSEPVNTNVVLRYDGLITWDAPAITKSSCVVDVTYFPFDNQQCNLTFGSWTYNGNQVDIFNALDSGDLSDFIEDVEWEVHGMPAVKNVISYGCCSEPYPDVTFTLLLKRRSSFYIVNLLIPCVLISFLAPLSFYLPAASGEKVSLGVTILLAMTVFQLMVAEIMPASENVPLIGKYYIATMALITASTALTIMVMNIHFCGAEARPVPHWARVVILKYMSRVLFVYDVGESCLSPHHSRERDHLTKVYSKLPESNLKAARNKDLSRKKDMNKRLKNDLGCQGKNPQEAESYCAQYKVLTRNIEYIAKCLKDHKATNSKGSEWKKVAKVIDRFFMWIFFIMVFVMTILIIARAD", "T1 sequence (Q9GZZ6 25-450)": "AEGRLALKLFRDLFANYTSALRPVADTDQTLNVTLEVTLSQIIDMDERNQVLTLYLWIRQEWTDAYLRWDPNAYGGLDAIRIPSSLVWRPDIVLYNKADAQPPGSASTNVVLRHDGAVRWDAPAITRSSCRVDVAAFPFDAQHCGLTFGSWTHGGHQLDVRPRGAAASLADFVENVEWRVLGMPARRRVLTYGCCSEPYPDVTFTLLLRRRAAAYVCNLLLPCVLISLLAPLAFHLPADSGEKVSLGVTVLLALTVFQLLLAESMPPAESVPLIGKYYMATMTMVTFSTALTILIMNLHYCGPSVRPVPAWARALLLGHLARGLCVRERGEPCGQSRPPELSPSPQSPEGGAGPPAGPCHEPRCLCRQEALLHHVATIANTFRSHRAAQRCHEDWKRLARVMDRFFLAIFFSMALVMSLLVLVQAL", "assay": "Two-electrode voltage-clamp on α9/α10 nAChR in Xenopus oocytes", "format": "cell-based", "experimental": "Recordings were performed using Axopatch 200 amplifier in two-electrode voltage-clamp setup (Molecular Devices, LLC, San Jose, CA, USA) on oocytes removed from mature Xenopus frogs. Two to three days before taking recordings, oocytes were injected with in vitro transcribed RNA, coding α9 and α10 nAChR and kept at 18 °C in ND96 electrophysiology buffer solution (5 mM HEPES/NaOH at pH 7.6 and 18 °C, 96 mM NaCl, 2 mM KCl, 1.8 mM CaCl2, 2 mM MgCl2)."}, "[2]": {"test_system": "myocardial infarction model", "parameters": "method as in PMID 35538277", "details": "cited from earlier work"}, "MIA-induced arthritis [3]": {"test_system": "MIA-induced arthritis", "assay": "Monoiodoacetate-induced arthritis model, functional tests", "format": "in vivo, Wistar female rats", "experimental": "By the 8th day of the experiment, the maximum inflammation of the knee joint was noted. […] On the 8th and 16th days, the effect of the compound was assessed using a set of functional tests: weight distribution between the healthy and inflamed limbs immediately after the first 6ND injection (Figure 8a) and after eight days of 6ND administration (Figure 8b), muscle strength grasping the hind limbs after the first 6ND injection (Figure 8c) and after eight days of 6ND administration (Figure 8d), mechanical allodynia after the start of 6ND administration and after eight days of 6ND administration (Figure 8e,f, respectively), thermal hypersensitivity 2 h after administration of 6ND ([…]), and measuring the diameter of the knee joint (Figure 8h).\n(§1) Four groups of animals were formed: control and three groups with modelling of inflammation by introducing monoiodoacetate (MIA). Three groups of animals were injected with 3 mg MIA in 50 μL of 0.9% sodium chloride through the patellar ligament into the intra-articular space of the right knee using a 29-G needle. Control rats received an equivalent volume of 0.9% sodium chloride.\nAssessments of inflammation in vivo and functional tests were conducted on days 8 and 16 after arthritis model induction. Thermal and mechanical hypersensitivity and pain-induced articular disability were tested in this model. Body weight gain and paw oedema were also monitored during the experiment.\nThe inflamed paw withdrawal or licking latencies to thermal stimulation were measured on a hot plate device (Hot Plate Analgesia Meter, Columbus Instruments) with a set temperature of 53 ± 0.1 °C and a cut-off time of 60 s.\nMechanical hypersensitivity was measured by the electronic von Frey instrument (model BIO-EVF4; Bioseb, Vitrolles, France) used to vertically stimulate the center of the rat hind paw with increasing intensity. Measurements were repeated 3 times and the final value was obtained by averaging the 3 measurements.\nBehavioral assessment of movement-caused pain was carried out in a hind limb grip strength test using a Grip Strength Meter (Columbus Instruments, Columbus, OH, USA) consisting of a wire mesh frame connected to the gauge. Rats were restrained and allowed to grasp the wire mesh frame with their hind paws and then were pulled backwards until the grip released. Three measurements were conducted with an interval of 30 s for the averaged grip strength calculation."}, "MIA-induced arthritis [4]": {"test_system": "MIA-induced arthritis", "assay": "Monoiodoacetate-induced arthritis model, histological study of the knee joint", "format": "in vivo, female rats", "details": "15th day, scale 0-5, n = 4", "excerpt": "After the experiment termination and euthanasia of the experimental animals, biomaterials were taken for histological examination. Soft tissues around the right knee joint were excised as much as possible. Femur, tibia, and fibula were cut across in the middle of the diaphysis closer to the corresponding articular surfaces. The joint was fixed in a 10% solution of neutral formalin for seven days, washed in running water and then decalcified in Trilon B for 7–14 days. After satisfactory decalcification of the bone and cartilage tissue, the joint was cut in the sagittal plane. The diaphysis of the tubular bones was shortened to the border of 2–3 mm from the metaepiphyseal cartilage. In this form, the biomaterial was repeatedly washed in running water, dehydrated in alcohols of ascending concentration, and embedded in paraffin. Paraffin sections 5–7 μm thick were stained with hematoxylin and eosin and examined using conventional light microscopy. During histological analysis, the following morphological signs were assessed: inflammatory infiltration of the synovial membrane (synovitis), synovial hyperplasia, destructive changes in the articular cartilage, and destructive changes in bone tissue (if any). The following scale was used to assess the severity of a particular morphological trait: 0 points—within normal limits, 1—minimal severity, 2—weak, 3—medium (moderate), 4—strong, 5—very strong.\nas §1"}}, "note": "“Also recorded” adds a separate entry of the source.", "data": [{"smiles": "COC(=O)[C@@H](Cc1c[nH]c2cc(I)ccc12)[N+](C)(C)C", "note": "[Compound 1, (D)-6-iodohypaphorine methyl ester]", "values": [{"measurement": "increase in the expression of CD86", "setting": "[1]", "result": 21, "unit": "%"}, {"measurement": "activity toward α9α10 nAChR", "setting": "α9α10 nAChR", "result": "almost inactive"}]}, {"smiles": "COC(=O)C(Cc1c[nH]c2cc([N+](=O)[O-])ccc12)[N+](C)(C)C", "note": "(stereo not drawn) [Compound 5, methyl ester of 6-nitrohypaphorine]", "values": [{"measurement": "effect in myocardial infarction model", "setting": "[2]", "result": "significant positive effect"}, {"measurement": "anti-oedemic and analgesic effects in arthritis rat model", "setting": "MIA-induced arthritis [3]; i.p. doses 0.05–0.26 mg/kg", "result": "demonstrated anti-oedemic and analgesic effects"}, {"measurement": "grip strength of affected limb", "setting": "MIA-induced arthritis [3]; rats, 0.05 and 0.26 mg/kg, after eight days of administration, listed as 6ND", "result": "significantly improved grip strength in MIA-induced arthritis in rats at a dose of 0.05 but not 0.26 mg/kg; also recorded: significantly improved grip strength of affected limb after eight days"}, {"measurement": "body weight distribution between healthy and affected limbs", "setting": "MIA-induced arthritis [3]; rats, 0.05 and 0.26 mg/kg, days 8 and 16, listed as 6ND", "result": "No significant influence of 6ND on recovery was detected; also recorded: did not influence body weight distribution"}, {"measurement": "thermal hyperalgesia in hot plate test", "setting": "MIA-induced arthritis [3]; rats, 2 h after administration, listed as 6ND", "result": "No significant effects of 6ND in hot plate test; also recorded: did not influence thermal hyperalgesia"}, {"measurement": "mechanical allodynia", "setting": "MIA-induced arthritis [3]; rats, 16 days after MIA, eight days of administration, listed as 6ND", "result": "dose-dependent improvement in allodynia test 16 days after MIA injection; also recorded: analgesic (anti-allodynic) effect"}, {"measurement": "oedema of the MIA-injected knee joint (diameter)", "setting": "MIA-induced arthritis [3]; rats, listed as 6ND", "result": "Significant effect in dynamics of oedema was detected in rats treated with 0.05 mg/kg 6ND; also recorded: anti-oedemic effect on the MIA-injected joint"}, {"measurement": "Destructive Changes in the Distal Epiphyseal Cartilage of the Femur, Max score", "setting": "MIA-induced arthritis [4]; 0.05 mg/kg intramuscular", "result": 3.0}, {"measurement": "Destructive Changes in the Distal Epiphyseal Cartilage of the Femur, Me (average) score", "setting": "MIA-induced arthritis [4]; 0.05 mg/kg intramuscular", "result": 3.0}, {"measurement": "Destructive Changes in the Distal Epiphyseal Cartilage of the Femur, Min score", "setting": "MIA-induced arthritis [4]; 0.05 mg/kg intramuscular", "result": 3.0}, {"measurement": "Destructive Changes in the Proximal Epiphyseal Cartilage of the Tibia, Max score", "setting": "MIA-induced arthritis [4]; 0.05 mg/kg intramuscular", "result": 4.0}, {"measurement": "Destructive Changes in the Proximal Epiphyseal Cartilage of the Tibia, Me (average) score", "setting": "MIA-induced arthritis [4]; 0.05 mg/kg intramuscular", "result": 3.5}, {"measurement": "Destructive Changes in the Proximal Epiphyseal Cartilage of the Tibia, Min score", "setting": "MIA-induced arthritis [4]; 0.05 mg/kg intramuscular", "result": 3.0}, {"measurement": "Inflammatory Infiltration of the Synovium, Max score", "setting": "MIA-induced arthritis [4]; 0.05 mg/kg intramuscular", "result": 4.0}, {"measurement": "Inflammatory Infiltration of the Synovium, Me (average) score", "setting": "MIA-induced arthritis [4]; 0.05 mg/kg intramuscular", "result": 3.75}, {"measurement": "Inflammatory Infiltration of the Synovium, Min score", "setting": "MIA-induced arthritis [4]; 0.05 mg/kg intramuscular", "result": 3.0}, {"measurement": "Synovial Hyperplasia, Max score", "setting": "MIA-induced arthritis [4]; 0.05 mg/kg intramuscular", "result": 3.0}, {"measurement": "Synovial Hyperplasia, Min score", "setting": "MIA-induced arthritis [4]; 0.05 mg/kg intramuscular", "result": 2.0}, {"measurement": "Synovial Hyperplasia, Me (average) score", "setting": "MIA-induced arthritis [4]; 0.05 mg/kg intramuscular, listed as 6ND", "result": 2.25}, {"measurement": "Destructive Changes in the Distal Epiphyseal Cartilage of the Femur, Max score", "setting": "MIA-induced arthritis [4]; 0.26 mg/kg intramuscular", "result": 3.0}, {"measurement": "Destructive Changes in the Distal Epiphyseal Cartilage of the Femur, Me (average) score", "setting": "MIA-induced arthritis [4]; 0.26 mg/kg intramuscular", "result": 3.0}, {"measurement": "Destructive Changes in the Distal Epiphyseal Cartilage of the Femur, Min score", "setting": "MIA-induced arthritis [4]; 0.26 mg/kg intramuscular", "result": 3.0}, {"measurement": "Destructive Changes in the Proximal Epiphyseal Cartilage of the Tibia, Max score", "setting": "MIA-induced arthritis [4]; 0.26 mg/kg intramuscular", "result": 4.0}, {"measurement": "Destructive Changes in the Proximal Epiphyseal Cartilage of the Tibia, Me (average) score", "setting": "MIA-induced arthritis [4]; 0.26 mg/kg intramuscular", "result": 3.5}, {"measurement": "Destructive Changes in the Proximal Epiphyseal Cartilage of the Tibia, Min score", "setting": "MIA-induced arthritis [4]; 0.26 mg/kg intramuscular", "result": 3.0}, {"measurement": "Inflammatory Infiltration of the Synovium, Max score", "setting": "MIA-induced arthritis [4]; 0.26 mg/kg intramuscular", "result": 3.0}, {"measurement": "Inflammatory Infiltration of the Synovium, Me (average) score", "setting": "MIA-induced arthritis [4]; 0.26 mg/kg intramuscular", "result": 2.5}, {"measurement": "Inflammatory Infiltration of the Synovium, Min score", "setting": "MIA-induced arthritis [4]; 0.26 mg/kg intramuscular", "result": 2.0}, {"measurement": "Synovial Hyperplasia, Max score", "setting": "MIA-induced arthritis [4]; 0.26 mg/kg intramuscular", "result": 2.0}, {"measurement": "Synovial Hyperplasia, Me (average) score", "setting": "MIA-induced arthritis [4]; 0.26 mg/kg intramuscular", "result": 1.5}, {"measurement": "Synovial Hyperplasia, Min score", "setting": "MIA-induced arthritis [4]; 0.26 mg/kg intramuscular", "result": 1.0}]}]}
